{"source": "patent US20110319415A1", "about": "“Susceptibility to HSP90-Inhibitors” (Universit+e,uml a+ee t zu K+e,uml o+ee ln, priority 2008, published 2011)", "key": {"Akt": {"test_system": "Akt", "assay": "Immunoblot of lysates of cell lines treated with 17-AAG: Akt", "type": "cell-based, human", "settings": "sensitive (KRAS-mutant) cell lines", "description": "(§1) (A) Distribution of KRAS mutations (black columns) across the 17-AAG-sensitivity profile (IC50 values) in the NSCLC cell line collection and the NCI-60 cell line panel. Incidence of KRAS mutation and sensitivity towards 17-AAG is represented by a Fisher's exact test for both datasets. (B) Lysates of a KRAS wildtype (wt) and a KRAS mutated (G12C) cell line treated with 17AAG at different concentrations were immunoblotted for c-RAF, KRAS, cyclinD1 and Akt. (C) Distribution of copy number gain at 1q21.3 (black columns) across the UO126-sensitivity profile (IC50 values) in the NSCLC cell line collection and the hypothemycin-sensitivity profile in the NCI-60 cell line panel. Incidence of amplification of 1q21.3 mutation and sensitivity towards 17-AAG is represented by a Fisher's exact test for both datasets. […]\n(§2) Whole-cell lysates were prepared in NP40 lysis buffer (50 mmol/L Tris-HCl (pH 7.4). 150 mmol/L NaCl, 1% NP40) supplemented with protease and phosphatase inhibitor I and II cocktails (www.merckbiosciences.co.uk/g.asp?f=CBC/home.html) and clarified by centrifugation. Protein concentrations were determined using the Bicinchoninic Acid Protein Assay kit (www.piercenet.com) and equivalent amounts (40-60 μg) were subjected to SDS-PAGE on 12% gels, except where indicated. […]"}, "NSCLC cell lines": {"test_system": "NSCLC cell lines", "assay": "High-throughput cell-based screening of the NSCLC cell line collection (CellTiter-Glo viability)", "settings": "for sensitivity pattern (cytotoxic activity) across the NSCLC cell line collection: cellular viability after 96 h, cellular ATP content, entire NSCLC cell line panel"}, "[1]": {"test_system": "mutant EGFR bound to Hsp90", "assay": "Depletion of mutant EGFR from the Hsp90 complex", "type": "cell-based", "settings": "same conditions as for KRAS"}, "[2]": {"test_system": "mutant KRAS bound to Hsp90", "assay": "Depletion of mutant KRAS from the Hsp90 complex", "type": "cell-based", "settings": "treatment with HSP90 inhibitor"}, "KRAS": {"test_system": "KRAS", "assay": "Immunoblot of lysates of cell lines treated with 17-AAG: KRAS", "type": "cell-based, human", "settings": "sensitive (KRAS-mutant) cell lines", "description": "as §1, §2"}, "c-RAF": {"test_system": "c-RAF", "assay": "Immunoblot of lysates of cell lines treated with 17-AAG: c-RAF", "type": "cell-based, human", "settings": "sensitive (KRAS-mutant) cell lines", "description": "as §1, §2"}, "[3]": {"test_system": "KRAS-driven lung adenocarcinomas", "description": "FIG. 20. […] Note that the images were taken from the earlier publications for illustration purposes only.\nTransgenic mice (as described in FIG. 20) with KRAS-mutant lung tumors were treated with the HSP90 inhibitor 17-DMAG for seven days. Tumor volumes were determined by magnetic resonance imaging and shown as transthoracic images (left panels), quantified and changes in tumor volume relative to the pre-therapy images are given in percent.\nThese mice carry a Lox-Stop-Lox-KRAS_G12D gene. […] Mice received 20 mg/kg/d of 17-DMAG, a geldanamycin HSP90 inhibitor with almost identical structure as 17-AAG."}, "[4]": {"test_system": "Ba/F3 cells expressing erlotinib-sensitizing mutations of EGFR together with T790M", "assay": "Growth inhibition / cytotoxicity in Ba/F3 cells expressing mutant EGFR with T790M", "type": "cell-based, Murine", "settings": "Ba/F3 with sensitizing EGFR mutation plus T790M, 96 h, cellular ATP content", "description": "Compounds were then added in serial dilutions.\nEGFR_cDNA was subcloned into pBabe-hygro vectors."}}, "note": "“And” between values parts separate entries of the source, which are not always exact repeats. Equal values may be shown once. “Also recorded” adds a separate entry of the source."}
{"smiles": "C=CCNC1=C2C[C@@H](C)C[C@H](OC)[C@H](O)[C@@H](C)/C=C(\\C)[C@H](OC(N)=O)[C@@H](OC)/C=C\\C=C(/C)C(=O)NC(=CC1=O)C2=O", "note": "[17-AAG, [(3S,5S,6R,7S,8E,10R,11S,12E,14E)-21-(allylamino)-6-hydroxy-5,11-dimethoxy-3,7,9,15-tetramethyl-16,20,22-trioxo-17-azabicyclo[16.3.1]docosa-8,12,14,18,21-pentaen-10-yl]carbamate]", "values": [{"measurement": "Akt protein levels after treatment", "setting": "Akt", "result": "modulated; also recorded: reduced protein levels"}, {"measurement": "sensitivity pattern (cytotoxic activity) across the NSCLC cell line collection", "setting": "NSCLC cell lines", "result": "active in most of the cell lines with only a minority being resistant"}, {"measurement": "depletion of mutant EGFR from the Hsp90 complex", "setting": "[1]", "result": "depleted from the complex"}, {"measurement": "depletion of mutant KRAS from the Hsp90 complex", "setting": "[2]", "result": "not depleted from the complex"}, {"measurement": "KRAS protein levels after treatment", "setting": "KRAS", "result": "not modulated"}, {"measurement": "c-RAF protein levels after treatment", "setting": "c-RAF", "result": "modulated; also recorded: reduced protein levels"}]}
{"smiles": "CO[C@H]1/C=C\\C=C(/C)C(=O)NC2=CC(=O)C(NCCN(C)C)=C(C[C@@H](C)C[C@H](OC)[C@H](O)[C@@H](C)/C=C(\\C)[C@@H]1OC(N)=O)C2=O", "note": "[17-DMAG, 17-NN-Dimethyl Ethylene Diamine-Geldanamycin]", "values": [{"measurement": "biological effects in the cell lines compared with 17-AAG", "setting": "NSCLC cell lines; in vitro, data not shown", "result": "identical"}, {"measurement": "tumor burden of the third mouse", "setting": "[3]; 20 mg/kg/d, one week of treatment, MRI imaging", "result": "slight but insignificant reduction of tumor burden"}, {"measurement": "mice showing tumor regression", "setting": "[3]; 20 mg/kg/d, one week of treatment, MRI imaging, lox-stop-lox KRAS_G12D mice", "result": "2 of 3 and 3 of 4"}, {"measurement": "duration of responses", "setting": "[3]; lung tumor-bearing lox-stop-lox KRAS_G12D mice, one-week treatment", "result": "transient"}]}
{"smiles": "N#CC(=C(/N)Sc1ccccc1N)/C(C#N)=C(\\N)Sc1ccccc1N", "note": "[U0126]", "values": [{"measurement": "sensitivity pattern (cytotoxic activity) across the NSCLC cell line collection", "setting": "NSCLC cell lines", "result": "enhanced activity in a subset of the lung cancer cell line collection"}]}
{"smiles": "Cc1cc(Nc2cc(N3CCN(C)CC3)nc(Sc3ccc(NC(=O)C4CC4)cc3)n2)n[nH]1", "note": "[VX-680]", "values": [{"measurement": "sensitivity pattern (cytotoxic activity) across the NSCLC cell line collection", "setting": "NSCLC cell lines", "result": "pronounced cytotoxic activity in a small subset of cell lines"}]}
{"smiles": "C#Cc1cccc(Nc2ncnc3cc(OCCOC)c(OCCOC)cc23)c1", "note": "[erlotinib]", "values": [{"measurement": "sensitivity pattern (cytotoxic activity) across the NSCLC cell line collection", "setting": "NSCLC cell lines", "result": "pronounced cytotoxic activity in a small subset of cell lines"}]}
{"smiles": "COc1cc2c(Nc3ccc(Br)cc3F)ncnc2cc1OCC1CCN(C)CC1", "note": "[vandetanib]", "values": [{"measurement": "sensitivity pattern (cytotoxic activity) across the NSCLC cell line collection", "setting": "NSCLC cell lines", "result": "pronounced cytotoxic activity in a small subset of cell lines"}, {"measurement": "activity / cytotoxicity in Ba/F3 cells expressing the T790M resistance allele", "setting": "[4]", "result": "completely resistant"}, {"measurement": "activity / cytotoxicity in Ba/F3 cells expressing the T790M resistance allele", "setting": "[4]; listed as Vandatinib", "result": "lack of activity"}]}
